# Experimental data: patent publication US12291501B2 (University of Florida Research Foundation, Inc., priority 2021, dated 2025)
# Where “and” joins values, the source holds several entries; their conditions need not be identical. Equal entries are not always repeated.
# Assays:
# Format in all cases: cell-based
# α9 nAChR = target: T1, α9 nAChR (Homo sapiens, UniProt Q9UGM1); assay: Two-electrode voltage-clamp, agonist concentration-response, α9 nAChR in Xenopus oocytes; details: for EC50 / α9 Imax: peak currents, ± standard error of fit; for α9 Imax: relative to ACh (Imax = 1)
# T1 construct: expressed in transfected cells; host or cells: Xenopus laevis oocytes, injected with in vitro transcribed RNA
# Description: (§1) Electrophysiology: Xenopus oocytes were microinjected with RNAs to produce functional nAChR which were characterized by two-electrode voltage-clamp measurements. FIGS. 5A-7D present concentration-response curves for the new compounds evaluated with α7, α9, and α9α10 receptors. Table 1 presents the values for Imax and EC50 with these receptors and Table 2 summarizes inhibition data for the compounds with heteromeric nAChR.
# (§2) Molecular Biology: Plasmid DNAs encoding the human α7 and heteromeric nAChR were obtained from Jon Lindstrom (University of Pennsylvania, Philadelphia, PA). Mouse muscle subunit clones were obtained from Jim Boulter (Salk Institute, La Jolla CA) and Paul Gardner (Dartmouth, Hanover NH). The human resistance-to-cholinesterase 3 ([…]) clone was obtained from Millet Treinin (Hebrew University, Jerusalem, Israel) and RNA co-injected with α7 to improve the level and speed of receptor expression without affecting their pharmacological properties. Plasmid DNA encoding the human α10 nAChR was obtained from J. Michael McIntosh. Plasmid DNA encoding the human α9 nAChR and the human receptor-associated protein of the synapse (RAPSYN) with codon optimization for expression in Xenopus laevis were obtained from Katrin Richter. RAPSYN RNA was co-injected with the α9 and α10 to improve expression (Richter et al., (2022) Front. Cell Neurosci. 16: 779081). After linearization and purification of the plasmid DNAs, RNAs were prepared using the mMessage mMachine in vitro RNA transcription kit (Ambion, Austin, TX). Frogs were maintained in the Animal Care Service facility of the University of Florida, and all procedures were approved by the University of Florida Institutional Animal Care and Use Committee (approval number 202002669). In brief, the animals were first anesthetized for 15-20 min in 1.5 l frog tank water containing 1 g of MS-222 buffered with sodium bicarbonate. Oocytes were obtained surgically from mature female Xenopus laevis (Nasco, Ft. Atkinson WI, USA) and treated with 1.4 mg/ml type 1 collagenase (Worthington Biochemicals, Freehold NJ, USA) for 2-4 h at rt in Ca2+-free Barth's solution (88 mM NaCl, 1 mM KCl, 2.38 mM NaHCO3, 0.82 mM MgSO4, 15 mM HEPES, and 12 mg/l tetracycline, pH 7.6) to remove the ovarian tissue and the follicular layers. Stage V oocytes were injected with 4-6 ng CHRNA7 RNA and 2-3 ng RIC3 RNA (2:1 ratio) in 50 nl water, or with 12 ng CHRNA9 RNA and 3 ng RAPSN RNA, or along with 12 ng CHRNA10 RNA in 50 nl water. Oocytes were maintained in Barth's solution containing 0.32 mM Ca(NO3)2 and 0.41 mM CaCl2, and recordings were conducted 2-20 days after injection.
# (§3) Electrophysiology: Two-electrode voltage-clamp experiments were conducted using OpusXpress 6000A (Molecular Devices, Union City CA, USA). Both the voltage and current electrodes were filled with 3 M KCl. Oocytes were voltage-clamped at −60 mV at rt. The oocytes were perfused with Ringer's solution (115 mM NaCl, 2.5 mM KCl, 1.8 mM CaCl2, 10 mM HEPES, 1 μM atropine, pH 7.2) at 2 ml/min. […] Drug applications were 12 s in duration followed by 181 s washout periods.
# (§4) The responses were calculated as both peak-current amplitudes and net charge. Data were collected at 50 Hz, filtered at 20 Hz, and analyzed by Clampfit (Molecular Devices) and Excel (Microsoft, Redmond, WA, United States). Data are expressed as means±SEM from at least five oocytes for each experiment and plotted with Kaleidagraph 4.5.2 (Abelbeck Software, Reading, PA, United States). Each episode of data acquisition was a total of 210 s and included an initial 30 s period used to define the baseline for the drug-evoked responses. After 30 s, drugs were applied, and the following 120 s were defined as the drug response period for analysis. […] The values for the curve fits were generated using the Levenberg-Marquardt algorithm to obtain the best Chi-Square fit to the Hill equation using the Kaleidagraph 4.5.2 plotting program. […]
# α9α10 nAChR = target: T2, α9α10 nAChR (Homo sapiens, UniProt Q9GZZ6+Q9UGM1); assay: Two-electrode voltage-clamp, agonist concentration-response, α9α10 nAChR in Xenopus oocytes; details: for EC50 / α9α10 Imax: peak currents, ± standard error of fit; for α9α10 Imax: relative to ACh (Imax = 1)
# T2 construct: expressed in transfected cells; host or cells: Xenopus laevis oocytes, injected with in vitro transcribed RNA
# Description: as §1, §2, §3, §4
# α7 nAChR [1] = target: T3, α7 nAChR (Homo sapiens, UniProt P36544); assay: α7 responses to drugs co-applied with the PAM PNU-120596 (silent agonism); details: drug 30 μM + 10 μM PNU-120596; normalized to 30 μM ACh + 10 μM PNU-120596
# T3 construct: expressed in transfected cells; host or cells: Xenopus laevis oocytes, injected with in vitro transcribed RNA
# Description: (§5) Molecular Biology: Plasmid DNAs encoding the human α7 and heteromeric nAChR were obtained from Jon Lindstrom (University of Pennsylvania, Philadelphia, PA). Mouse muscle subunit clones were obtained from Jim Boulter (Salk Institute, La Jolla CA) and Paul Gardner (Dartmouth, Hanover NH). […] Plasmid DNA encoding the human α10 nAChR was obtained from J. Michael McIntosh. Plasmid DNA encoding the human α9 nAChR and the human receptor-associated protein of the synapse (RAPSYN) with codon optimization for expression in Xenopus laevis were obtained from Katrin Richter. […] After linearization and purification of the plasmid DNAs, RNAs were prepared using the mMessage mMachine in vitro RNA transcription kit (Ambion, Austin, TX). […] Oocytes were maintained in Barth's solution containing 0.32 mM Ca(NO3)2 and 0.41 mM CaCl2, and recordings were conducted 2-20 days after injection.
# (§6) Electrophysiology: Two-electrode voltage-clamp experiments were conducted using OpusXpress 6000A (Molecular Devices, Union City CA, USA). Both the voltage and current electrodes were filled with 3 M KCl. Oocytes were voltage-clamped at −60 mV at rt.
# (§7) The responses were calculated as both peak-current amplitudes and net charge. Data were collected at 50 Hz, filtered at 20 Hz, and analyzed by Clampfit (Molecular Devices) and Excel (Microsoft, Redmond, WA, United States). Data are expressed as means±SEM from at least five oocytes for each experiment and plotted with Kaleidagraph 4.5.2 (Abelbeck Software, Reading, PA, United States). Each episode of data acquisition was a total of 210 s and included an initial 30 s period used to define the baseline for the drug-evoked responses. After 30 s, drugs were applied, and the following 120 s were defined as the drug response period for analysis. […] The values for the curve fits were generated using the Levenberg-Marquardt algorithm to obtain the best Chi-Square fit to the Hill equation using the Kaleidagraph 4.5.2 plotting program. The errors in the tables are the calculated standard errors of the fit parameters based on the goodness of fit.
# α7 nAChR [2] = target: T3, α7 nAChR; assay: Two-electrode voltage-clamp, agonist concentration-response, α7 nAChR in Xenopus oocytes; details: for EC50 / α7 Imax: net charge, ± standard error of fit; for α7 Imax: relative to ACh (Imax = 1)
# Description: as §1, §5, §6, §7
# α1β1εδ nAChR = target: T4, α1β1εδ nAChR (Mus musculus, UniProt P02716+P04756+P09690+P20782); assay: Inhibition of control ACh responses by co-application, muscle α1β1εδ nAChR in oocytes; details: 3 μM compound co-applied with ACh; fraction of control ACh response
# T4 construct: expressed in transfected cells; host or cells: Xenopus laevis oocytes
# Method: (§8) Initial profiling against heteromeric receptors: The test compounds for their ability to activate or inhibit other nAChR subtypes were evaluated. Agonist activity was evaluated by applying the compounds at 100 or 30 μM to human α4β2 and α3β4 as well as to mouse muscle α1β1εδ nAChR expressed in Xenopus oocytes. […] The inhibitory activity was generally low (Table 3).
# as §2, §3, §7
# α3β4 nAChR = target: T5, α3β4 nAChR (Homo sapiens, UniProt P30926+P32297); assay: Inhibition of control ACh responses by co-application, α3β4 nAChR in oocytes; details: 3 μM compound co-applied with ACh; fraction of control ACh response
# T5 construct: expressed in transfected cells; host or cells: Xenopus laevis oocytes
# Method: as §8, §2, §3, §7
# α4β2 nAChR = target: T6, α4β2 nAChR (Homo sapiens, UniProt P17787+P43681); assay: Inhibition of control ACh responses by co-application, α4β2 nAChR in oocytes; details: 3 μM compound co-applied with ACh; fraction of control ACh response
# T6 construct: expressed in transfected cells; host or cells: Xenopus laevis oocytes
# Method: as §8, §2, §3, §7
# T3 sequence (P36544 23-502): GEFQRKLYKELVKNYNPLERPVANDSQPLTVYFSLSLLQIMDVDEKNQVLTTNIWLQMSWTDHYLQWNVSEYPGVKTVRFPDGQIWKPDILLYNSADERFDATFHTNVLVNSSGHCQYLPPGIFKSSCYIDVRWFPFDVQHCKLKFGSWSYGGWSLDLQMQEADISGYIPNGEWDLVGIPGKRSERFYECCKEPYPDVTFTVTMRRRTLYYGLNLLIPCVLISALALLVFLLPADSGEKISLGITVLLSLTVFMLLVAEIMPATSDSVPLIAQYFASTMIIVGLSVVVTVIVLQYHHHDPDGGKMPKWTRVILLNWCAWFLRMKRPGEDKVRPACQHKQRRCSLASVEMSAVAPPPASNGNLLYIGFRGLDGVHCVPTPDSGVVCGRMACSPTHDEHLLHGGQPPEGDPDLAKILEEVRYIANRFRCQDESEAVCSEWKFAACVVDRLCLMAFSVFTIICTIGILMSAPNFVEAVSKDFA
# T4 sequence (P04756 21-457): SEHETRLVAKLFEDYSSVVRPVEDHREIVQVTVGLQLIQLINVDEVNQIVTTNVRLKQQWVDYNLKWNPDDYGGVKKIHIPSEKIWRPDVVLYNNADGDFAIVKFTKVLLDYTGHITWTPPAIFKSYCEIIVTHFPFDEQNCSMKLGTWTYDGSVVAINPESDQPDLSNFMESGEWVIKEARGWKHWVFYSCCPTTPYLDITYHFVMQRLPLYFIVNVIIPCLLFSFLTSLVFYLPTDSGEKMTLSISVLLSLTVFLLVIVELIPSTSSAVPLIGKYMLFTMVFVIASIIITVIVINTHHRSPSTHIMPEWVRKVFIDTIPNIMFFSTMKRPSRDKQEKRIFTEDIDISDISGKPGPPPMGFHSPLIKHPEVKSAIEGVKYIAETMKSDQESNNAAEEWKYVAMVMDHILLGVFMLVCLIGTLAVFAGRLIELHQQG
# T4 sequence (P09690 24-501): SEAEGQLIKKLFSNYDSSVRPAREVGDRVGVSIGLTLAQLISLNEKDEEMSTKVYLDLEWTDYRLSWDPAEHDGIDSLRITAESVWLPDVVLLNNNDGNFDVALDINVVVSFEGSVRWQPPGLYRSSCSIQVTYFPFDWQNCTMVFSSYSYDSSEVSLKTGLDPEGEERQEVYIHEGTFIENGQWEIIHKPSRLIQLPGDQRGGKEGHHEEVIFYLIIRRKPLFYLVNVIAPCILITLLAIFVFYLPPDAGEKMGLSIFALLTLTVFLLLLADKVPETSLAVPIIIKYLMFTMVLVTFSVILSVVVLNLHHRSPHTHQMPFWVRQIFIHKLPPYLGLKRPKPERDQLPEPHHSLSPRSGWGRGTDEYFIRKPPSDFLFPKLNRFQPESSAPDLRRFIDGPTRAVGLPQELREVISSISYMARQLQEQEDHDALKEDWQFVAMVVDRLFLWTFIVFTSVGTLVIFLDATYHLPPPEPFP
# T4 sequence (P20782 21-493): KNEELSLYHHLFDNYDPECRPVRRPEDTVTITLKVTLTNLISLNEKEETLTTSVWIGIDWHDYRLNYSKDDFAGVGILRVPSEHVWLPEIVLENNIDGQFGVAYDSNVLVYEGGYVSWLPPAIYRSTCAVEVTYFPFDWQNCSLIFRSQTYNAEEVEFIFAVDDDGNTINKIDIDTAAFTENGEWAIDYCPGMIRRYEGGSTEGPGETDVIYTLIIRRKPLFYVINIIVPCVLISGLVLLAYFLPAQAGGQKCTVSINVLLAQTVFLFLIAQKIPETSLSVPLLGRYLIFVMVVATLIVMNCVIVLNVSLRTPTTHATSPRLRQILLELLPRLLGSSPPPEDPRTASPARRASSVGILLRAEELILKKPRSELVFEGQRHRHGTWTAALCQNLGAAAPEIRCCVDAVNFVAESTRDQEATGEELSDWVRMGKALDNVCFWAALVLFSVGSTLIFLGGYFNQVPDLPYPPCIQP
# T4 sequence (P02716 25-520): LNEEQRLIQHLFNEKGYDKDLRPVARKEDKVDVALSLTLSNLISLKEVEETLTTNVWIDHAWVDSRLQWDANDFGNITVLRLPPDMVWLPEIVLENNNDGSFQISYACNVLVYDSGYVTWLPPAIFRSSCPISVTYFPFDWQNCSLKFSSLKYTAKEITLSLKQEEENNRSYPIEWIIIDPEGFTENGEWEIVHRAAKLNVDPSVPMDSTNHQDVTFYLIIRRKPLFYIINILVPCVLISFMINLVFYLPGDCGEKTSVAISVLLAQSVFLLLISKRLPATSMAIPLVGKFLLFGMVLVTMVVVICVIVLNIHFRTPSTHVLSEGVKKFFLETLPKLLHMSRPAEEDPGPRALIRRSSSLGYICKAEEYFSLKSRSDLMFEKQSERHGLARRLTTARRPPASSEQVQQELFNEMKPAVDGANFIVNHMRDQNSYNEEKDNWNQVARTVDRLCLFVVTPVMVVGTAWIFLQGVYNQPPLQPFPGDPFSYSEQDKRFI
# T6 sequence (P43681 29-627 limits assumed): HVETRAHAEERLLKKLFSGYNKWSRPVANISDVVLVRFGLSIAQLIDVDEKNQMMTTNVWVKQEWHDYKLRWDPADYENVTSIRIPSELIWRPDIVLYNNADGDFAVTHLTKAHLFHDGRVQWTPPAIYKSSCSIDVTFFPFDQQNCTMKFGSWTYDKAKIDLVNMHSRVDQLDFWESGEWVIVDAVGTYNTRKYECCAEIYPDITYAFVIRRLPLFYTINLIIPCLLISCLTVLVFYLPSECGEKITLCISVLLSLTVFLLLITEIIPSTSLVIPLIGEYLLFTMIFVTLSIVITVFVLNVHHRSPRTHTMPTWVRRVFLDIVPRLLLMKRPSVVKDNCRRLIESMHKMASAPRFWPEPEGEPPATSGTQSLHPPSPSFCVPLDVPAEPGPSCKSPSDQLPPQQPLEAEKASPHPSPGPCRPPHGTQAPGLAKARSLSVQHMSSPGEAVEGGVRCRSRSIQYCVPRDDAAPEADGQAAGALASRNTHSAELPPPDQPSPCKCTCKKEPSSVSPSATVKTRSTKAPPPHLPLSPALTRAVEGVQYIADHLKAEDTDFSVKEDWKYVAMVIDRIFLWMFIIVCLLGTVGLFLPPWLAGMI
# T6 sequence (P17787 26-502): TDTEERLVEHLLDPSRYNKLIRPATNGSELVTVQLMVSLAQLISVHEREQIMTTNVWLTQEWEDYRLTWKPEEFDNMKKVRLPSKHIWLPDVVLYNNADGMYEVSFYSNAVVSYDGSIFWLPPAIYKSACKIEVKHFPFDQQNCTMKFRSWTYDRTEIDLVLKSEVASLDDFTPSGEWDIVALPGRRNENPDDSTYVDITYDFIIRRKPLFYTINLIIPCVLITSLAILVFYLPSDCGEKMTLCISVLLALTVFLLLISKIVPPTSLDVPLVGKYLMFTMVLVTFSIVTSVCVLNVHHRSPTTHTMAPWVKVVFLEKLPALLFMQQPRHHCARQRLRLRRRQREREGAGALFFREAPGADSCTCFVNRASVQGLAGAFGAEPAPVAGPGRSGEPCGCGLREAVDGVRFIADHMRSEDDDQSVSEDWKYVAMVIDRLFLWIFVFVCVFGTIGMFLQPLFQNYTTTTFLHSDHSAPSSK
# T1 sequence (Q9UGM1 26-479 limits assumed): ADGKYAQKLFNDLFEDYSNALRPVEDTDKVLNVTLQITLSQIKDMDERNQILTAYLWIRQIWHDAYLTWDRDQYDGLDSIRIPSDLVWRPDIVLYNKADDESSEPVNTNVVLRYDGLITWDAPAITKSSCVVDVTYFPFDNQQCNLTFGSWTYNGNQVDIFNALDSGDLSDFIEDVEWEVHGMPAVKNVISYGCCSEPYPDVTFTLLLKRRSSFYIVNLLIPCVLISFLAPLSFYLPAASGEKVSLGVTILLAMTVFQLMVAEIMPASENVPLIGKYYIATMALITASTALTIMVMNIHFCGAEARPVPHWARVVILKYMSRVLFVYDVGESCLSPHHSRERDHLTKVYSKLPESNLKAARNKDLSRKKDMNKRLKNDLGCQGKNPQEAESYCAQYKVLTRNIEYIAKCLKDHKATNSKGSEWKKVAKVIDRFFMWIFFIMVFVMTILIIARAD
# T2 sequence (Q9UGM1 26-479 limits assumed): as above
# T2 sequence (Q9GZZ6 25-450): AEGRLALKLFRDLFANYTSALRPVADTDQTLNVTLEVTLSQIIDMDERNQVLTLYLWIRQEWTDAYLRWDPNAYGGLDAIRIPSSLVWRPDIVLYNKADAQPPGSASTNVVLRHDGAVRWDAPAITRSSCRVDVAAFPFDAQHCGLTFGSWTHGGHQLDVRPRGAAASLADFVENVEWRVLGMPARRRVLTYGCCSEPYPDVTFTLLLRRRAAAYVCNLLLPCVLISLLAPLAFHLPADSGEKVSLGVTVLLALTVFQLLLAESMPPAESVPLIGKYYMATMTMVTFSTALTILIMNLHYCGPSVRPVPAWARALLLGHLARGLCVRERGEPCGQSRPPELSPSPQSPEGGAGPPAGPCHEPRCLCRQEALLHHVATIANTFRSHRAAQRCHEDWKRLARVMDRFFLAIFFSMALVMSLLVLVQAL
Compound,Agonist character / efficacy at α9 (α9 nAChR),EC50 (α9 nAChR) [µM],Fold greater potency for α9 than for α7 (α9 nAChR; ratio of EC50 values) [fold],α9 Imax (α9 nAChR),EC50 (α9α10 nAChR) [µM],α9α10 Imax (α9α10 nAChR),"Response co-applied with PNU-120596, normalized to ACh co-applied with PNU-120596 (α7 nAChR [1])",EC50 (α7 nAChR [2]) [µM],α7 Imax (α7 nAChR [2]),"Effect of co-application on the control ACh responses, α1β1εδ (α1β1εδ nAChR)","Effect of co-application on the control ACh responses, α3β4 (α3β4 nAChR)","Effect of co-application on the control ACh responses, α4β2 (α4β2 nAChR)",Agonist character / efficacy at α7 (α7 nAChR [2]),Agonist character / efficacy at α9α10 (α9α10 nAChR),Fold better potency for α9α10 relative to α9 homomers (α9α10 nAChR; ratio of EC50 values) [fold]
"CC[N+]1(CC)CCN(c2ccc(C(N)=O)cc2)CC1 [Compound 1, 4-(4-carbamoylphenyI)-1,1-diethylpiperazin-1-ium iodide, reference compound]",full α9 agonist,1.15 ± 0.24,66,0.80 ± 0.03,13 ± 11,1.19 ± 0.25,0.18,76 ± 2,0.34 ± 0.01 and 0.34,,,,,,
"CC[N+]1(CC)CCN(c2ccc(C(=O)N3CCCC3)cc2)CC1.[I-] [Compound 3a, 1,1-diethyl-4-(4-(pyrrolidine-1-carbonyl)phenyl)piperazin-1-ium iodide]",moderate efficacy,45 ± 22,,0.69 ± 0.09,15 ± 3.1,0.56 ± 0.04,0.01,500 ± 500,0.06 ± 0.11 and 0.06,0.541 ± 0.048,0.849 ± 0.034,0.919 ± 0.022,lost agonism,,
"CCCNC(=O)c1ccc(N2CC[N+](CC)(CC)CC2)cc1.[I-] [Compound 3b, 1,1-diethyl-4-(4-(propylcarbamoyl)phenyl)piperazin-1-ium iodide]",,9 ± 6,,1.13 ± 0.15,11 ± 6,0.79 ± 0.13,0.19,280 ± 240,0.38 ± 0.09 and 0.38,0.709 ± 0.086,0.650 ± 0.039,0.946 ± 0.032,,,
"CC[N+]1(CC)CCN(c2ccc(C(=O)Nc3ccccn3)cc2)CC1.[I-] [Compound 3c, 1,1-diethyl-4-(4-(pyridin-2-ylcarbamoyl)phenyl)piperazin-1-ium iodide]",,18 ± 36,,1.18 ± 0.39,1.18 ± 0.26,0.94 ± 0.04,0.12,26 ± 20,0.46 ± 0.08 and 0.46,0.506 ± 0.082,0.789 ± 0.057,0.697 ± 0.027,partial agonists,efficacious agonist,10
"CC[N+]1(CC)CCN(c2ccc(C(=O)Nc3cccc(C)c3)cc2)CC1.[I-] [Compound 3d, 1,1-diethyl-4-(4-(m-tolylcarbamoyl)phenyl)piperazin-1-ium iodide]",,1.28 ± 0.62,,1.25 ± 0.14,0.61 ± 0.08,1.12 ± 0.03,0.17,1.3 ± 0.1,0.60 ± 0.02 and 0.6,0.555 ± 0.060,1.039 ± 0.015,0.807 ± 0.048,partial agonists,,
